Results as given in patent US6737383B1, “Herbicidal oxadiazolidines” (priority 1999, dated 2004).

What was measured:
[1] = test system: wild oat; experiment: Test B pre/postemergence wild oat; format: in vivo, Avena fatua
Source text: (§1) Seeds of bedstraw (Galium aparine), blackgrass (Alopecurus myosuroides), surinam grass (Brachiaria decumbens), cocklebur (Xanthium strumarium), corn (Zea mays), crabgrass (Digitaria sanguinalis), giant foxtail (Setaria faberii), morningglory (Ipomoea hederacea), pigweed (Amaranthus retroflexus), rape (Brassica napus), soybean (Glycine max), sugar beet (Beta vulgaris), velvetleaf (Abutilon theophrasti), wheat (Triticum aestivum), wild oat (Avena fatua) and purple nutsedge (Cyperus rotundus) tubers were planted and treated preemnergence with test chemicals formulated in a non-phytotoxic solvent mixture which included a surfactant.
(§2) At the same time, these crop and weed species were also treated with postemergence applications of test chemicals formulated in the same manner. Plants ranged in height from 2 to 18 cm (1- to 4-leaf stage) for postemergence treatments. Plant species in the flood test consisted of rice (Oryza sativa), smallflower flatsedge (Cyperus difformis), duck salad (Heteranthera limosa) and bamyardgrass (Echinochloa crus-galli) grown to the 2-leaf stage for testing. Treated plants and controls were maintained in a greenhouse for twelve to sixteen days, after which all species were compared to controls and visually evaluated. Plant response ratings, summarized in Table B, are based on a scale of 0 to 10 where 0 is no effect and 10 is complete control. A dash (−) response means no test result.

[2] = test system: cocklebur; experiment: Test B pre/postemergence cocklebur; format: in vivo, Xanthium strumarium
Source text: as §1, §2

[3] = test system: giant foxtail; experiment: Test B pre/postemergence giant foxtail; format: in vivo, Setaria faberii
Source text: as §1, §2

[4] = test system: surinam grass; experiment: Test B pre/postemergence surinam grass; format: in vivo, Brachiaria decumbens
Source text: as §1, §2

[5] = test system: wheat; experiment: Test B pre/postemergence wheat; format: in vivo, Triticum aestivum
Source text: as §1, §2

[6] = test system: soybean; experiment: Test B pre/postemergence soybean; format: in vivo, Glycine max
Method in brief: (§3)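 Herbicidal effect was estimated by eye on a ten-point control scale after plants spent twelve to sixteen days in a greenhouse following soil or foliar treatment. Foliar sprays targeted plants at one to four leaves; all doses were formulated in a non-phytotoxic solvent with surfactant.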

[7] = test system: velvetleaf; experiment: Test B pre/postemergence velvetleaf; format: in vivo, Abutilon theophrasti
Method in brief: as §3

[8] = test system: rape; experiment: Test B pre/postemergence rape; format: in vivo, Brassica napus
Source text: as §1, §2

[9] = test system: corn; experiment: Test B pre/postemergence corn; format: in vivo, Zea mays
Source text: as §1, §2

[10] = test system: bedstraw; experiment: Test B pre/postemergence bedstraw; format: in vivo, Galium aparine; conditions: Rate 62 g/ha, Postemergence; scale of 0 to 10 where 0 is no effect and 10 is complete control
Source text: as §1, §2

[11] = test system: purple nutsedge; experiment: Test B pre/postemergence purple nutsedge; format: in vivo, Cyperus rotundus
Source text: as §1, §2

[12] = test system: morningglory; experiment: Test B pre/postemergence morningglory; format: in vivo, Ipomoea hederacea
Source text: as §1, §2

[13] = test system: pigweed; experiment: Test B pre/postemergence pigweed; format: in vivo, Amaranthus retroflexus
Method in brief: as §3

[14] = test system: blackgrass; experiment: Test B pre/postemergence blackgrass; format: in vivo, Alopecurus myosuroides
Method in brief: as §3

[15] = test system: sugar beet; experiment: Test B pre/postemergence sugar beet; format: in vivo, Beta vulgaris
Source text: as §1, §2

[16] = test system: crabgrass; experiment: Test B pre/postemergence crabgrass; format: in vivo, Digitaria sanguinalis
Method in brief: as §3

[17] = Preemergence, Rate 62 g/ha, scale of 0 to 10 where 0 is no effect and 10 is complete control
[18] = Preemergence, Rate 250 g/ha, scale of 0 to 10 where 0 is no effect and 10 is complete control
[19] = Preemergence, Rate 500 g/ha, scale of 0 to 10 where 0 is no effect and 10 is complete control
[20] = Rate 125 g/ha, Preemergence, scale of 0 to 10 where 0 is no effect and 10 is complete control
[21] = Rate 500 g/ha, Postemergence, scale 0 to 10, 0 no effect, 10 complete control
[22] = Rate 62 g/ha, Postemergence, scale of 0 to 10 where 0 is no effect and 10 is complete control
[23] = Rate 125 g/ha, Postemergence, scale 0 to 10

For `CC(C)N(C(=O)n1oc(=O)n(COCc2ccccc2)c1=O)c1ccc(F)cc1` [Compound 261], the “Wild oats plant response rating” value [1, 17] was 0, the “Wild oats plant response rating” value [1, 18] was 0 and the “Plant response rating, Wild oats” value [1, 19] was 0. The “Wild oats plant response rating” value [1, 20] was 0, the “Wild oats plant response rating” value [1, 21] was 0 and the “Cocklebur plant response rating” value [2, 17] was 0. For the same compound, the “Cocklebur plant response rating” value [2, 18] was 0, the “Plant response rating, Cocklebur” value [2, 19] was 0 and the “Cocklebur plant response rating” value [2, 22] was 0. For the same compound, the “Cocklebur plant response rating” value [2, 23] was 0, the “Cocklebur plant response rating” value [2, 20] was 0 and the “Plant response rating (0 to 10; 0 is no effect, 10 is complete control), Cocklebur” value ([2]; Rate 250 g/ha, Postemergence) was 0. For the same compound, the “Cocklebur plant response rating” value [2, 21] was 1, the “Giant foxtail plant response rating” value [3, 17] was 8 and the “Giant foxtail plant response rating” value [3, 18] was 9. The “Plant response rating, Giant foxtail” value [3, 19] was 9, the “Giant foxtail plant response rating” value [3, 20] was 8 and the “Plant response rating (0 to 10; 0 is no effect, 10 is complete control), Giant foxtail” value ([3]; Rate 250 g/ha, Postemergence) was 0. For the same compound, the “Giant foxtail plant response rating” value [3, 21] was 0, the “B. signalgrass plant response rating” value [4, 17] was 0 and the “B. signalgrass plant response rating” value [4, 18] was 0. The “Plant response rating, B. signalgrass” value [4, 19] was 3, the “B. signalgrass plant response rating” value [4, 22] was 0 and the “B. signalgrass plant response rating” value ([4]; Rate 125 g/ha, Postemergence, scale 0 (no effect) to 10 (complete control)) was 0. For the same compound, the “B. signalgrass plant response rating” value [4, 20] was 0, the “Plant response rating (0 to 10; 0 is no effect, 10 is complete control), B. signalgrass” value ([4]; Rate 250 g/ha, Postemergence) was 0 and the “B. signalgrass plant response rating” value [4, 21] was 0. The “Wheat plant response rating” value [5, 17] was 0, the “Wheat plant response rating” value [5, 18] was 0 and the “Plant response rating, Wheat” value [5, 19] was 0. For the same compound, the “Wheat plant response rating” value [5, 20] was 0, the “Wheat plant response rating” value [5, 21] was 2 and the “Soybean plant response rating” value [6, 17] was 0. For the same compound, the “Soybean plant response rating” value [6, 18] was 0, the “Plant response rating, Soybean” value [6, 19] was 0 and the “Soybean plant response rating” value [6, 20] was 0. The “Soybean plant response rating” value [6, 21] was 4, the “Velvetleaf plant response rating” value [7, 17] was 0 and the “Velvetleaf plant response rating” value [7, 18] was 0. The “Plant response rating, Velvetleaf” value [7, 19] was 0, the “Velvetleaf plant response rating” value [7, 20] was 0 and the “Velvetleaf plant response rating” value [7, 21] was 1. For the same compound, the “Rape plant response rating” value [8, 17] was 0, the “Rape plant response rating” value [8, 18] was 0 and the “Plant response rating, Rape” value [8, 19] was 0. For the same compound, the “Rape plant response rating” value [8, 20] was 0, the “Plant response rating (0 to 10; 0 is no effect, 10 is complete control), Rape” value ([8]; Rate 250 g/ha, Postemergence) was 0 and the “Rape plant response rating” value [8, 21] was 0. For the same compound, the “Corn plant response rating” value [9, 17] was 0, the “Corn plant response rating” value [9, 18] was 0 and the “Plant response rating, Corn” value [9, 19] was 0. For the same compound, the “Corn plant response rating” value [9, 22] was 0, the “Corn plant response rating” value [9, 23] was 0 and the “Corn plant response rating” value [9, 20] was 0. For the same compound, the “Plant response rating (0 to 10; 0 is no effect, 10 is complete control), Corn” value ([9]; Rate 250 g/ha, Postemergence) was 0, the “Corn plant response rating” value [9, 21] was 0 and the “Bedstraw plant response rating” value [10] was 0. For the same compound, the “Nutsedge plant response rating” value [11, 18] was 0, the “Plant response rating, Nutsedge” value [11, 19] was 0 and the “Nutsedge plant response rating” value [11, 20] was 0. For the same compound, the “Plant response rating (0 to 10; 0 is no effect, 10 is complete control), Nutsedge” value ([11]; Rate 250 g/ha, Postemergence) was 0, the “Nutsedge plant response rating” value [11, 21] was 0 and the “Morningglory plant response rating” value [12, 17] was 0. For the same compound, the “Morningglory plant response rating” value [12, 18] was 0, the “Plant response rating, Morningglory” value [12, 19] was 0 and the “Morningglory plant response rating” value [12, 20] was 0. For the same compound, the “Plant response rating (0 to 10; 0 is no effect, 10 is complete control), Morningglory” value ([12]; Rate 250 g/ha, Postemergence) was 6, the “Morningglory plant response rating” value [12, 21] was 6 and the “Redroot pigweed plant response rating” value [13, 17] was 0. For the same compound, the “Redroot pigweed plant response rating” value [13, 18] was 0, the “Plant response rating, Redroot pigweed” value [13, 19] was 0 and the “Redroot pigweed plant response rating” value [13, 20] was 0. The “Plant response rating (0 to 10; 0 is no effect, 10 is complete control), Redroot pigweed” value ([13]; Rate 250 g/ha, Postemergence) was 1, the “Redroot pigweed plant response rating” value [13, 21] was 2 and the “Blackgrass plant response rating” value [14, 17] was 0. For the same compound, the “Blackgrass plant response rating” value [14, 18] was 1, the “Plant response rating, Blackgrass” value [14, 19] was 4 and the “Blackgrass plant response rating” value [14, 22] was 0. For the same compound, the “Blackgrass plant response rating” value [14, 23] was 0, the “Blackgrass plant response rating” value [14, 20] was 0 and the “Plant response rating (0 to 10; 0 is no effect, 10 is complete control), Blackgrass” value ([14]; Rate 250 g/ha, Postemergence) was 0. The “Blackgrass plant response rating” value [14, 21] was 5, the “Sugarbeets plant response rating” value [15, 17] was 0 and the “Sugarbeets plant response rating” value [15, 18] was 0. The “Plant response rating, Sugarbeets” value [15, 19] was 0, the “Sugarbeets plant response rating” value [15, 20] was 0 and the “Sugarbeets plant response rating” value [15, 21] was 0. For the same compound, the “Crabgrass plant response rating” value [16, 17] was 2, the “Crabgrass plant response rating” value [16, 18] was 5 and the “Plant response rating, Crabgrass” value [16, 19] was 5. For the same compound, the “Crabgrass plant response rating” value [16, 20] was 3, the “Plant response rating (0 to 10; 0 is no effect, 10 is complete control), Crabgrass” value ([16]; Rate 250 g/ha, Postemergence) was 0 and the “Crabgrass plant response rating” value [16, 21] was 0.
